# Measured values as given in the supplement of paper PMC10307832.
# Columns and labels:
# Test in all cases: relative viability (nuclei count vs DMSO), 5 days (fraction); higher = more cells survive
# Midostaurin + Trametinib = compound: CO[C@@H]1[C@H](N(C)C(=O)c2ccccc2)C[C@H]2O[C@]1(C)n1c3ccccc3c3c4c(c5c6ccccc6n2c5c31)C(=O)NC4 [Midostaurin] + CC(=O)Nc1cccc(-n2c(=O)n(C3CC3)c(=O)c3c(Nc4ccc(I)cc4F)n(C)c(=O)c(C)c32)c1 [Trametinib] (partner 0.02 µM)
# How it was run: (§1)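 Lung cancer cell lines were pin-tool dosed in 1536-well plates on the day after seeding, with either a lone drug or a fixed anchor-drug dose plus five library-drug doses (not always all listed) in √10 steps. Nuclei were counted on 4× images after 5 days. Relative viability is the ratio of treated-well to vehicle-well nuclei counts, with each value a median of duplicate plates.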
# Midostaurin + Foretinib = compound: CO[C@@H]1[C@H](N(C)C(=O)c2ccccc2)C[C@H]2O[C@]1(C)n1c3ccccc3c3c4c(c5c6ccccc6n2c5c31)C(=O)NC4 [Midostaurin] + COc1cc2c(Oc3ccc(NC(=O)C4(C(=O)Nc5ccc(F)cc5)CC4)cc3F)ccnc2cc1OCCCN1CCOCC1 [Foretinib] (partner 0.25 µM)
# How it was run: as §1
# Midostaurin + Lapatinib = compound: CO[C@@H]1[C@H](N(C)C(=O)c2ccccc2)C[C@H]2O[C@]1(C)n1c3ccccc3c3c4c(c5c6ccccc6n2c5c31)C(=O)NC4 [Midostaurin] + CS(=O)(=O)CCNCc1ccc(-c2ccc3ncnc(Nc4ccc(OCc5cccc(F)c5)c(Cl)c4)c3c2)o1 [Lapatinib] (partner 2 µM)
# How it was run: as §1
# [1] = compound: COc1cc(-c2nn([C@H]3CC[C@H](N4CCN(C(C)=O)CC4)CC3)c3ncnc(N)c23)ccc1NC(=O)c1cc2ccccc2n1C + Cc1nc(Nc2ncc(C(=O)Nc3c(C)cccc3Cl)s2)cc(N2CCN(CCO)CC2)n1 [Dasatinib] (partner 0.075 µM)
# How it was run: as §1
# [2] = compound: COc1cc(-c2nn([C@H]3CC[C@H](N4CCN(C(C)=O)CC4)CC3)c3ncnc(N)c23)ccc1NC(=O)c1cc2ccccc2n1C + O=C(c1cc(Cc2n[nH]c(=O)c3ccccc23)ccc1F)N1CCN(C(=O)C2CC2)CC1 [Olaparib] (partner 8 µM)
# How it was run: as §1
cell line,measurement,setting,value
UMC-11,relative viability,Midostaurin + Trametinib; first compound 0.01 µM,0.698
same,relative viability,Midostaurin + Trametinib; first compound 0.03162 µM,0.656
same,relative viability,Midostaurin + Trametinib; first compound 0.1 µM,0.691
same,relative viability,Midostaurin + Trametinib; first compound 0.3162 µM,0.562
same,relative viability,Midostaurin + Foretinib; first compound 0.01 µM,1.08
same,relative viability,Midostaurin + Foretinib; first compound 0.03162 µM,0.946
same,relative viability,Midostaurin + Foretinib; first compound 0.1 µM,0.868
same,relative viability,Midostaurin + Foretinib; first compound 0.3162 µM,0.234
same,relative viability,Midostaurin + Lapatinib; first compound 0.01 µM,0.936
same,relative viability,Midostaurin + Lapatinib; first compound 0.03162 µM,0.836
same,relative viability,Midostaurin + Lapatinib; first compound 0.1 µM,0.937
same,relative viability,Midostaurin + Lapatinib; first compound 0.3162 µM,0.513
same,relative viability,[1]; first compound 0.0128 µM,0.49
same,relative viability,[1]; first compound 0.04048 µM,0.468
same,relative viability,[1]; first compound 0.128 µM,0.42
same,relative viability,[1]; first compound 1.28 µM,0.446
same,relative viability,[2]; first compound 0.0128 µM,0.388
same,relative viability,[2]; first compound 0.04048 µM,0.464
same,relative viability,[2]; first compound 0.128 µM,0.342
same,relative viability,[2]; first compound 1.28 µM,0.362
